Measured values taken from article PMC7957563, “The Novel benzamide Derivative, VKNG-2, Restores the Efficacy of Chemotherapeutic Drugs in Colon Cancer Cell Lines by Inhibiting the ABCG2 Transporter” (International Journal of Molecular Sciences, 2021).

Target: T1, ABCG2 transporter (Homo sapiens, UniProt Q9UNQ0)
T1 construct: ABCG2-overexpressing cell membranes
T1 sequence (Q9UNQ0 1-655): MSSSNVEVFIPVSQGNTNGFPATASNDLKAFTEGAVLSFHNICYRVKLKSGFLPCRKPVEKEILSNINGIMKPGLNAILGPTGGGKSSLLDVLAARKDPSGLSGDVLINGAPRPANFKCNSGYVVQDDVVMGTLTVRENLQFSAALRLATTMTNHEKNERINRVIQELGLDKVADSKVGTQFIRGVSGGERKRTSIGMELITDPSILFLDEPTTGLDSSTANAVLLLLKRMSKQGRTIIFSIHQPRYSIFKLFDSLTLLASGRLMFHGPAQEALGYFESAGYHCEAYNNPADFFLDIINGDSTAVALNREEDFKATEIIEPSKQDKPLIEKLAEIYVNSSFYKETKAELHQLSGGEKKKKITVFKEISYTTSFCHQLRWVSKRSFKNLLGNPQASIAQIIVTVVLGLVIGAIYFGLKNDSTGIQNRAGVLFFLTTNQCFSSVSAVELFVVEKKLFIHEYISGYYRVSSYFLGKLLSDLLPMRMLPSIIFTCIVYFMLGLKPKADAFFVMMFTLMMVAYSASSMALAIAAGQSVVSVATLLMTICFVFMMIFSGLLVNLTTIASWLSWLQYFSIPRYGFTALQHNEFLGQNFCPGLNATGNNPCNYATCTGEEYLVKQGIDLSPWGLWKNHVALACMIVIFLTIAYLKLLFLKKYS
Assay: vanadate-sensitive ATPase stimulation in ABCG2-overexpressing membranes; [3H]-mitoxantrone efflux inhibition in S1-M1-80 cells
Type: biochemical

CCCc1ccc(NC(=O)c2ccccc2NC(=O)Nc2cccc([N+](=O)[O-])c2)cc1 [VKNG-2, 2-(3-(3-Nitrophenyl)ureido)-N-(4-propylphenyl)benzamide]
EC50: 2300 nM
